Calls of active or inactive are those of the source. The calls are words filed in the database; no cut-off is given here.
Experiments:
[1] = biological target: T1, Programmed cell death protein 1/Programmed cell death 1 ligand 1 (Homo sapiens, UniProt Q15116+Q9NZQ7); assay: Inhibition of PD-1/PDL-1 (unknown origin) interaction incubated for 15 mins by TR-FRET assay; assay type: protein-complex assay
[2] = biological target: T1, Programmed cell death protein 1/Programmed cell death 1 ligand 1; assay: Inhibition of PD-1/PDL-1 (unknown origin) interaction at 1 uM incubated for 15 mins by TR-FRET assay; assay type: protein-complex assay
MDA-MB-231 [3] = assay: Cytotoxicity against human MDA-MB-231 cells assessed as cell killing at 2 uM incubated for 24 hrs by LDH assay; assay type: functional, cell-based
MDA-MB-231 [4] = assay: Cytotoxicity against human MDA-MB-231 cells assessed as cell killing by PBMC cell activation at 1 uM incubated for 24 hrs by LDH assay; assay type: functional, cell-based

T1 sequence (Q15116 whole entry): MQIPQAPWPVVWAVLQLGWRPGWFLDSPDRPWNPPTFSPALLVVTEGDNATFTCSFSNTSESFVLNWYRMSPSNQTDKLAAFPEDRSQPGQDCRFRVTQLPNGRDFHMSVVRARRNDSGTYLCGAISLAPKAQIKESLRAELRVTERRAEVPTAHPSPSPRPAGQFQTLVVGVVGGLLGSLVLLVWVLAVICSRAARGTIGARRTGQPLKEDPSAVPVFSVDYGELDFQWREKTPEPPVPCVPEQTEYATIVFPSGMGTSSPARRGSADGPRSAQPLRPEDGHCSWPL
T1 sequence (Q9NZQ7 whole entry): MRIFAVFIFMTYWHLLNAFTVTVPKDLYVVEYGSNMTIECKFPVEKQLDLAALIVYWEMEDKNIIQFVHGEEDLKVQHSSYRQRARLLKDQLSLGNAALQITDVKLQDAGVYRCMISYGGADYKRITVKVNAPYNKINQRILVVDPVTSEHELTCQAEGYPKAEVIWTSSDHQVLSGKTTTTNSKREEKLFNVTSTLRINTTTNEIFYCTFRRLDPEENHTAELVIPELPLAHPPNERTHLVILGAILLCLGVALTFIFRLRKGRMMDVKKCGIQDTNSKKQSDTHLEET

SMILES	IC50 [1] [nM]	inhibition [2]	Activity (MDA-MB-231 [3])	Activity (MDA-MB-231 [4])
COCCOc1cccc(-c2cccc(C(=O)Nc3ccc(CNCCNC(C)=O)cn3)c2Cl)c1	> 1000	5.29%	–	–
COC(=O)C1CN(Cc2ccc(NC(=O)c3cccc(-c4ccccc4)c3Cl)nc2)C1	> 1000	32.5%	–	–
CC(=O)NCCNCc1ccc(NC(=O)c2cccc(-c3ccccc3)c2C)nc1	> 1000	44.2%	–	–
COc1nc(NC(=O)c2cccc(-c3ccccc3)c2Cl)ccc1CNCCNC(C)=O	> 1000	28.2%	–	–
COCCNCc1ccc(NC(=O)c2cccc(-c3ccccc3)c2Cl)nc1	797	–	–	–
O=C(Nc1ccc(CN2CC[C@@H](O)C2)cn1)c1cccc(-c2ccccc2)c1Cl	373	–	–	–
O=C(Nc1ccc(CNCCO)c(C(F)(F)F)n1)c1cccc(-c2ccccc2)c1Cl	> 1000	41.5%	–	–
CC(=O)NCCNCc1ccc(NC(=O)c2cccc(-c3ccc(F)cc3)c2Cl)nc1	> 1000	6.96%	–	–
COc1ccc(-c2cccc(C(=O)Nc3ccc(CNCCNC(C)=O)cn3)c2Cl)cc1	> 1000	8.37%	–	–
O=C(Nc1ccc(CN2CCCC[C@H]2C(=O)O)cn1)c1cccc(-c2ccccc2)c1Cl	> 1000	41.2%	–	–
CN(C)CCNCc1ccc(NC(=O)c2cccc(-c3ccccc3)c2Cl)nc1	> 1000	27.7%	–	–
CC(=O)NCCNCc1ccc(NC(=O)c2cccc(-c3ccc(F)c(F)c3)c2Cl)nc1	> 1000	2.32%	–	–
CC(=O)NCCNCc1cccc(NC(=O)c2cccc(-c3ccccc3)c2Cl)n1	> 1000	15.8%	–	–
CC(=O)NCCNCc1ccc(NC(=O)c2cccc(-c3ccc4c(c3)OCCO4)c2Cl)nc1	284	–	–	–
CC(=O)NCCNCc1ccc(NC(=O)c2cccc(-c3ccc(S(C)(=O)=O)cc3)c2Cl)nc1	> 1000	inactive	–	–
CC(=O)NCCNCc1ccc(NC(=O)c2cccc(-c3cccc(CO)c3)c2Cl)nc1	> 1000	2.5%	–	–
O=C(Nc1ccc(CNCCO)cn1)c1cccc(-c2ccccc2)c1Cl	502	–	–	–
O=C(Nc1ccc(CN2CC(O)C2)cn1)c1cccc(-c2ccccc2)c1Cl	528	–	–	–
CO[C@H]1CCc2c(-c3cccc(C(=O)Nc4ccc(CNCCNC(C)=O)cn4)c3Cl)cccc21	> 1000	7.75%	–	–
COC(=O)[C@H]1CCN(Cc2ccc(NC(=O)c3cccc(-c4ccccc4)c3Cl)nc2)C1	> 1000	50.6%	–	–
COc1cccc(-c2cccc(C(=O)Nc3ccc(CNCCNC(C)=O)cn3)c2Cl)c1	> 1000	46.1%	–	–

SMILES	IC50 [1] [nM]	inhibition [2]	Activity (MDA-MB-231 [3])	Activity (MDA-MB-231 [4])
O=C(Nc1ccc(CN2CC[C@H](C(=O)O)C2)cn1)c1cccc(-c2ccc3c(c2)OCCO3)c1Cl	16.2	–	inactive	Active
CC(=O)NCCNCc1ccc(NC(=O)c2cccc(-c3ccccc3)c2Cl)nc1F	581	–	–	–
COc1nc(NC(=O)c2cccc(-c3ccccc3)c2Cl)ccc1CNCCN(C)C	> 1000	11.6%	–	–
CC(=O)NCCNCc1ccc(NC(=O)c2cccc(-c3cc(F)c(F)c(F)c3)c2Cl)nc1	> 1000	3.52%	–	–
CC(=O)NCCNCc1ccc(NC(=O)c2cccc(-c3ccccc3)c2Cl)nc1	496	–	–	–
O=C(Nc1ccc(CN2CCC(O)CC2)cn1)c1cccc(-c2ccccc2)c1Cl	460	–	–	–
CC(=O)NCCNCc1ccnc(NC(=O)c2cccc(-c3ccccc3)c2Cl)c1	894	–	–	–
COc1ccc(-c2cccc(C(=O)Nc3ccc(CNCCNC(C)=O)cn3)c2Cl)cc1OC	> 1000	–	–	–
O=C(Nc1ccc(CNC[C@@H](O)CO)cn1)c1cccc(-c2ccccc2)c1Cl	442	–	–	–
CC(=O)NCCNCc1ccc(NC(=O)c2cccc(-c3cccc4c3CC[C@@H]4O)c2Cl)nc1	> 1000	inactive	–	–
O=C(Nc1ccc(CN2CC[C@H](C(=O)O)C2)cn1)c1cccc(-c2ccc3c(c2)OCCO3)c1F	> 1000	inactive	–	–
CC(=O)NCCNCc1ccc(NC(=O)c2cccc(-c3ccccc3)c2Cl)cc1	> 1000	9.86%	–	–
O=C(Nc1ccc(CN2CC[C@H](C(=O)O)C2)cn1)c1cccc(-c2ccc3c(c2)OCCO3)c1	> 1000	inactive	–	–
CC(=O)NCCNCc1ccc(NC(=O)c2cccc(-c3ccccc3)c2Cl)nc1C(F)(F)F	> 1000	33.8%	–	–
COc1ccccc1-c1cccc(C(=O)Nc2ccc(CNCCNC(C)=O)cn2)c1Cl	> 1000	5.52%	–	–
O=C(Nc1ccc(CN2CC[C@H](C(=O)O)C2)cn1)c1cccc(-c2ccc3c(c2)OCCO3)c1Br	46.5	–	–	–
CC(=O)NCCNCc1ccc(NC(=O)c2cccc(-c3ccncc3)c2Cl)nc1	> 1000	inactive	–	–
COC1CN(Cc2ccc(NC(=O)c3cccc(-c4ccccc4)c3Cl)nc2)C1	> 1000	44%	–	–
O=C(Nc1ccc(CN2CC(C(=O)O)C2)cn1)c1cccc(-c2ccccc2)c1Cl	645	–	–	–
O=C(Nc1ccc(CNCCO)c(F)n1)c1cccc(-c2ccccc2)c1Cl	429	–	–	–
O=C(Nc1ccc(CN2CC[C@H](C(=O)O)C2)cn1)c1cccc(-c2ccccc2)c1Cl	173	–	–	–
